The values below come from paper PMC5746060, “General and Modular Strategy for Designing Potent, Selective, and Pharmacologically Compliant Inhibitors of Rhomboid Proteases” (Cell Chemical Biology, 2017).

Starred links: 1 amine or outer side, 2 acyl side, 3 side chain; linkers in the order of their positions; H or OH if unused. Non-standard residues stand in square brackets, D forms with d. Residues, ends and D or L forms follow the SMILES beside them. *: point of attachment. NH(4-phenylbutyl) = c1ccc(CCCCN*)cc1; X1 = C[C@H](N[*:1])C(=O)C(=O)[*:2]; NHPhenethyl = c1ccc(CCN*)cc1

The test system of test [1] is VcROM. The experiment in a line: activity-based probe competition assay, rhomboid panel. In kind it is biochemical, Vibrio cholerae. The following applies: 50 μM and 0.5 μM; outcompeted the ABP even at 500 nM. The text has this:
Any enzyme inhibitors to be used as specific tools for cell biology or as starting points for drug development must show sufficient level of selectivity toward their intended target. This is particularly important for compounds that react with the catalytic nucleophile common to many serine hydrolases. […] To map the selectivity of peptidyl ketoamides more objectively and widely, we employed activity-based probe (ABP) competition assays that enable a more general and substrate-independent measurement of inhibitory potency, because they rely solely on the competition between a fluorescently labeled activity-based probe and the tested inhibitor ([Nguyen et al., 2015], [Serim et al., 2012]). […]
(§1) Figure 5 Selectivity of Peptidyl Ketoamides (A) Selectivity of compounds 9, 10, and 11 for nine rhomboid proteases was profiled using activity-based probe competition assay at 50 μM and 0.5 μM concentration. […] (B) Selectivity of compounds 9, 10, and 11 against human serine hydrolases was analyzed using EnPlex as described ([Bachovchin et al., 2014]).
For inhibitor selectivity profiling against rhomboid proteases ([Wolf et al., 2015]), 400 ng of a purified protein preparation of E. coli GlpG was diluted in 30 μL of reaction buffer (20 mM HEPES, pH 7.4, with 0.05% (w/v) DDM). […] Gels were scanned on a Typhoon Trio+ and analyzed using ImageJ. […]

Test [2] deals with dipeptidylpeptidase 7 (DPP7) (Homo sapiens, UniProt Q9UHL4). The experiment in a line: EnPlex multiplex ABP competition profiling. In kind it is biochemical. To be noted: off-target hit; concentration range where they inhibit rhomboid proteases. The procedure:
(§2) Figure 5 Selectivity of Peptidyl Ketoamides (A) Selectivity of compounds 9, 10, and 11 for nine rhomboid proteases was profiled using activity-based probe competition assay at 50 μM and 0.5 μM concentration. The upper limit of enzyme concentration was 0.4 μM. (B) Selectivity of compounds 9, 10, and 11 against human serine hydrolases was analyzed using EnPlex as described ([Bachovchin et al., 2014]).
(§3) We next examined peptidyl ketoamides for their possible off-target effects on other serine proteases. To get a representative picture of the selectivity of peptidyl ketoamides, we employed a recently developed EnPlex technology, which allows multiplex analysis of ABP competition with about 100 human serine hydrolases, mostly proteases ([Bachovchin et al., 2014]).
(§4) For inhibitor selectivity profiling against rhomboid proteases ([Wolf et al., 2015]), 400 ng of a purified protein preparation of E. coli GlpG was diluted in 30 μL of reaction buffer (20 mM HEPES, pH 7.4, with 0.05% (w/v) DDM). For other rhomboids, amounts were taken that gave similar labeling intensity during profiling. Rhomboids were incubated for 30 min at room temperature with the indicated concentration of compound, 100 μM DCI as positive control, or an equal volume of DMSO as negative control. Next, TAMRA-FP serine hydrolase probe (Thermo Fisher #88318) was added to a final concentration of 1 ìM and incubated for 2 h at 37°C in the dark. The reaction was stopped by addition of 4× Laemmli buffer and the reaction mixture was resolved on 15% SDS-PAGE. Gels were scanned on a Typhoon Trio+ and analyzed using ImageJ. The intensity of each rhomboid protease band calculated by ImageJ was normalized against its corresponding DMSO-treated counterpart (100% activity) to indicate the residual activity left after inhibition. The remaining activity was used to calculate the percentage of inhibition depicted in the heatmap. Selectivity profiles against human serine hydrolases were determined by EnPlex as described previously ([Bachovchin et al., 2014]).

The test system of test [3] is about 100 human serine hydrolases. The experiment in a line: EnPlex multiplex ABP competition profiling. In kind it is biochemical. The following applies: concentration range where the ketoamides inhibit rhomboid proteases. As for the experimental part: as §2, §3, §4
Test [4] concerns TmROM. The experiment in a line: activity-based probe competition assay, rhomboid panel. In kind it is biochemical, Thermotoga maritima. The following applies: 50 μM.
Description: Any enzyme inhibitors to be used as specific tools for cell biology or as starting points for drug development must show sufficient level of selectivity toward their intended target. This is particularly important for compounds that react with the catalytic nucleophile common to many serine hydrolases. Only limited tests of selectivity have been conducted for the currently used rhomboid inhibitors isocoumarins, β-lactams and β-lactones, at best interrogating them against trypsin or chymotrypsin ([Pierrat et al., 2011], [Vosyka et al., 2013]). […]
as §1
For inhibitor selectivity profiling against rhomboid proteases ([Wolf et al., 2015]), 400 ng of a purified protein preparation of E. coli GlpG was diluted in 30 μL of reaction buffer (20 mM HEPES, pH 7.4, with 0.05% (w/v) DDM). […] Gels were scanned on a Typhoon Trio+ and analyzed using ImageJ. The intensity of each rhomboid protease band calculated by ImageJ was normalized against its corresponding DMSO-treated counterpart (100% activity) to indicate the residual activity left after inhibition. […]

As to `CC(=O)N[C@@H](CCCNC(=N)N)C(=O)N[C@H](C(=O)N[C@@H](CCCNC(=N)N)C(=O)N[C@@H](Cc1c[nH]cn1)C(=O)N[C@@H](C)C(=O)C(=O)NCCc1ccccc1)C(C)C` [compound 9, Ac-RVRHA-CONH-phenylethyl] (Ac-RVRH[X1]-NHPhenethyl), the “competition with ABP labeling of VcROM” value in test [1] was “potently competed”. Also, the “inhibition of DPP7 (EnPlex)” value in test [2] is on record as “the sequence related dipeptidylpeptidase 7 (DPP7)”. The “inhibition of human serine hydrolases (EnPlex selectivity profile)” value in test [3] was “fail to inhibit most of the tested human serine hydrolases”. For the same compound, the “inhibition of ABP labeling of TmROM” value in test [4] is listed as “only partially inhibited”.
Regarding `CC(=O)N[C@@H](CCCNC(=N)N)C(=O)N[C@H](C(=O)N[C@@H](CCCNC(=N)N)C(=O)N[C@@H](Cc1c[nH]cn1)C(=O)N[C@@H](C)C(=O)C(=O)NCCCCc1ccccc1)C(C)C` [compound 11, Ac-RVRHA-CONH-phenylbutyl] (Ac-RVRH[X1]-{NH(4-phenylbutyl)}), in test [1], the “competition with ABP labeling of VcROM” value was “potently competed”. Also, in test [2], the “inhibition of DPP7 (EnPlex)” value is “the sequence related dipeptidylpeptidase 7 (DPP7)”. Also, in test [3], the “inhibition of human serine hydrolases (EnPlex selectivity profile)” value is reported as “fail to inhibit most of the tested human serine hydrolases”. The “inhibition of ABP labeling of TmROM” value in test [4] is given as “only partially inhibited”.
